According to article PMC6193555 (Nutrition and cancer, 2017):

Assays:
c-Met (M1250T) = c-Met (M1250T) (Homo sapiens, UniProt P08581, M1250T); assay: Z'-LYTE cell-free kinase assay; assay type: biochemical
c-Met = c-Met (Homo sapiens, UniProt P08581); assay: Z'-LYTE cell-free kinase assay, positive control; assay type: biochemical
Sequence of c-Met (P08581 25-307): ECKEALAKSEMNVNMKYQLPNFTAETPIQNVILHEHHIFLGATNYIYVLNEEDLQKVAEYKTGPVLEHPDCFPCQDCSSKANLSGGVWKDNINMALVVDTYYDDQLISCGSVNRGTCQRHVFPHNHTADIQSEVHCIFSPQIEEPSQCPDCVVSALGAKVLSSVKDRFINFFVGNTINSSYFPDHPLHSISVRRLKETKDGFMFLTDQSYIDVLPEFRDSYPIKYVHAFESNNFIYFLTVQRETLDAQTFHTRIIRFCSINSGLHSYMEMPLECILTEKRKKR
Sequence of c-Met (P08581 308-1390): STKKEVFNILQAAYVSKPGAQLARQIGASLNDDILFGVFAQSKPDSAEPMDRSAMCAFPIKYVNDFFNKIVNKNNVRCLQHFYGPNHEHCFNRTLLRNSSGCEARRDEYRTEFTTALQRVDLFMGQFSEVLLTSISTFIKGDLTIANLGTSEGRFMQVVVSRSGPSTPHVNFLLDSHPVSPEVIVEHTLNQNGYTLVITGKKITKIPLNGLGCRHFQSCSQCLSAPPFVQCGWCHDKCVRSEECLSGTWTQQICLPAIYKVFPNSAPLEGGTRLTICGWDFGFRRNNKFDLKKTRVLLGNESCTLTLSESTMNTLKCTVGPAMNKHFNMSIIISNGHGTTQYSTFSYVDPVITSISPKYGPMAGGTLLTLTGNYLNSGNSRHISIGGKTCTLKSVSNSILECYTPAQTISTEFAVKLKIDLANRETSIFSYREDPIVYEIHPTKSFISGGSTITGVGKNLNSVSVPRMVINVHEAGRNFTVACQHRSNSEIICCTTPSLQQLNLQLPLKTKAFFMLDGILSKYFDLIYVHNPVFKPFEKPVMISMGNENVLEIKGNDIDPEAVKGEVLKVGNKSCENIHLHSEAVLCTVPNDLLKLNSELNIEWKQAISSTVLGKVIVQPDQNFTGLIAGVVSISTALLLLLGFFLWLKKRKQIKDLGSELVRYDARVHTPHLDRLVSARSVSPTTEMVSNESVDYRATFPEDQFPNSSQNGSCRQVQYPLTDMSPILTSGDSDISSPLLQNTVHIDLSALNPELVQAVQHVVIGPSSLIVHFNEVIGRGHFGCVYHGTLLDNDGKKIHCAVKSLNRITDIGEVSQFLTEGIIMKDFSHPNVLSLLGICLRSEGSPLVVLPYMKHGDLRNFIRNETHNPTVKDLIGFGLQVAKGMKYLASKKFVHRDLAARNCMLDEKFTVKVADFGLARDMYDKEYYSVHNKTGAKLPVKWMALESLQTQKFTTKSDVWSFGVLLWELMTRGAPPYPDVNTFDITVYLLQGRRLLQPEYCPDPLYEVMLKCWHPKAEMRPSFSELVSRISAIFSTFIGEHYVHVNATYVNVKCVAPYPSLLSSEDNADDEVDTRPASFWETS

Sequence of c-Met (M1250T) (P08581 956-1390 M1250T limits assumed): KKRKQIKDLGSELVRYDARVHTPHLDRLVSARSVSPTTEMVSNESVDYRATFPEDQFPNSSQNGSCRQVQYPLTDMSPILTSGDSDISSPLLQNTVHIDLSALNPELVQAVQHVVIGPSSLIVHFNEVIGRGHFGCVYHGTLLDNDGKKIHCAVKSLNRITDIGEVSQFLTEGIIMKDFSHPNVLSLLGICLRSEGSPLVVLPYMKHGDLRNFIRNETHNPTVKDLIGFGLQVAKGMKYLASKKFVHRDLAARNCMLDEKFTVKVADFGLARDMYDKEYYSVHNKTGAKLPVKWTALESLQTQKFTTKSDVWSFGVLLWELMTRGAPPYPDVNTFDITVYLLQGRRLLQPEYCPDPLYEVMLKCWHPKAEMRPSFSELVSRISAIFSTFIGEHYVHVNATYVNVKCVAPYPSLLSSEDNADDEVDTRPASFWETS

SMILES | IC50 (c-Met (M1250T)) | Z'-LYTE cell-free kinase assay, positive control (c-Met)
C[C@@H]1O[C@@H](OC[C@H]2O[C@@H](Oc3c(-c4ccc(O)c(O)c4)oc4cc(O)cc(O)c4c3=O)[C@H](O)[C@@H](O)[C@@H]2O)[C@H](O)[C@H](O)[C@H]1O [compound 6, quercetin 3-O-[α-L-^1C4-rhamnopyranosyl 1'”→6” β-D-^4C1-glucopyranoside]] | 8.5 µM | –
C/C=C(/C=O)[C@@H](CC=O)CC(=O)OCCc1ccc(O)cc1 [(–)-oleocanthal] | – | (–)-oleocanthal was utilized as a positive control in Z'-LYTE cell free assay as a documented c-Met inhibitory phenolic
